Experimental findings from patent US10588316B2 (priority 2015, dated 2020) are described below.

The test system of one test is Fusarium graminearum. Nature of the test: microbe, parasite or virus in culture. The test is classed as cell-based.
Test [1] relates to Fusarium graminearum and Fusarium asiaticum. Put plainly: organism not typed. The test is classed as cell-based. As to conditions: tebuconazole 0.078 μg/mL; sensitive and fungicide-resistant strains.

For Tebuconazole, the “Median Effective Concentration (EC50) for Growth Inhibition” value is 0.101 µg/mL in the test with Fusarium graminearum (F.g carbendazim-resistant strains) and 0.085 µg/mL with Fusarium graminearum (F.g phenamacril-resistant strains). Besides, the “inhibitory effect on hyphal growth” value in test [1] is on record as approximately 50%.
